The record followed here is the Kinase Knowledgebase extract (Sharma et al. 2016).

The experiment concerns the target CDK2 (UniProt P24941). The experiment is described as follows: Enzyme Assay.

SMILES strings stand for the structures.

By IC50 is commonly meant the concentration that gives 50% inhibition. A high value points to weaker potency. On to `COc1ccc(CNc2nc(NCCCNC(=O)[C@H]3CSC(=O)N3)nc3c2ncn3C(C)C)cc1`, for which the IC50 was 2 µM.
